Assay results from patent US20080194640A1, “Optically Active Tetrahydronaphthalene Derivative” (priority 2005, published 2008).
Converted amounts (≈) assume the structure as drawn.

Assays:
[1] = test system: collagen-induced arthritis; assay: Collagen-induced arthritis in monkey (articular swelling score); format: in vivo, cynomolgus monkey
C5a receptor = biological target: T1, C5a receptor (Homo sapiens, UniProt P21730); assay: C5a receptor binding assay ([125I]-human C5a, human peripheral blood neutrophil); conditions: [125I]-C5a 200 pM, 4° C. for 2 hr, read-out: IC50 value, inhibition of [125I]-human C5a binding
T1 construct: neutrophil fraction was separated from human peripheral intravenous blood; endogenous in cells; host or cells: human peripheral blood neutrophils (whole cells)
T1 sequence (P21730 1-350): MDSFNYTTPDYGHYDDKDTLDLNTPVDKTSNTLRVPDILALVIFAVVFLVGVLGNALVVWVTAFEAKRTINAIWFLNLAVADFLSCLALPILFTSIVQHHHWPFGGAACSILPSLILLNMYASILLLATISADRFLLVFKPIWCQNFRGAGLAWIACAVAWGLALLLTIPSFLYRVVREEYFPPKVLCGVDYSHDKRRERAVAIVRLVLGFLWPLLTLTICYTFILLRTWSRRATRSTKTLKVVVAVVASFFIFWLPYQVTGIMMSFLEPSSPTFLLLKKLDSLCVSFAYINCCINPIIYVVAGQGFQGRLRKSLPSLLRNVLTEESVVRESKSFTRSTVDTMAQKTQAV
Protocol: The C5a receptor binding inhibitory action of C5a and the test compound was evaluated by a receptor binding assay comprising of human peripheral blood neutrophil, which expresses the C5a receptor, and [^125I]-human C5a (Amersham Pharmacia Biotech) in a MultiScreen (MILLIPORE). First, neutrophil fraction was separated from human peripheral intravenous blood using lympholyte-poly (Cedarlane), and suspended in a Binding buffer [50 mM HEPES, 1 mM CaCl2, 5 mM MgCl2, 0.5% bovine albumin (BSA, SIGMA), 0.02% NaN3 (pH 7.2)]. The binding assay was started by the addition of 1×10^5 cells/50 μL neutrophil suspension, 25 μL of a test compound solution (obtained by dissolving the test compound in N,N-dimethylformamide to a final concentration of 10 mmol/L and diluting with binding buffer), and 25 μL of [^125I]-C5a solution (final concentration 200 pM), to each well of the MultiScreen. […] After drying the MultiScreen, the radioactivity on the filter was measured using a gamma counter.
The rate of inhibition (% inhibition) of C5a binding by the test compound was calculated by the following formula using the count value obtained without addition of the test compound as Total, the count value obtained with addition of non-labeled C5a as Non, and the count value obtained with addition of the test compound as Test. […]

[2] = Evaluation of biological availability (bioavailability) in rat; format: in vivo; conditions: for AUC: rat, fasted female SD rats, plasma
Protocol: Free base•Form-I crystal was administered to female SD rats fasted from the day before the experiment and the plasma concentration was measured under the following conditions. As a result, the areas under blood concentration-time curve (AUC) of the drug after intravenous administration and oral administration are as shown in Table 1.
• Dosing formulation: 0.5 mg/ml in aqueous physiological saline. • Dose: 1 mg/2 ml/kg • Administration method: bolus administration from the tail vein Collection of blood samples: About 0.1-0.2 mL of blood was taken from the cervical vein at 3 min, 10 min, 30 min, 1 hr, 2 hr, 4 hr and 6 hr after administration. The blood was centrifuged, and the plasma was separated.
• Dosing formulation: 2 mg/ml suspension adjusted by gradually adding aqueous hydroxypropylmethylcellulose solution to the compound of the present invention thoroughly triturated in an agate mortar. • Dose: 10 mg/5 ml/kg • Administration method: Forcible administration into the stomach • Collection of blood samples: About 0.1-0.2 mL of blood was taken from the cervical vein at 30 min, 1 hr, 2 hr, 4 hr, 6 hr, 8 hr and 24 hr after administration. The blood was centrifuged, and the plasma was separated.
The plasma concentration of the administered compound was measured by LC-MS/MS.
LC conditions • Column: Capcellpak C18 UG-120 (2.0φ mm×50 mm, S-5 μm, Shiseido Co., Ltd.) • Mobile phase: acetonitrile • Flow rate: 0.25 mL/min • Column temperature: room temperature • Auto sampler temperature set to: 25° C. • Gradient setting: • 0 min→0.6 min:25%→25% • 0.6 min→3.6 min:25%→75% • 3.6 min→6 min:75%→75% • 6 min→6.1 min:75%→25% • 6.1 min→9.5 min:25%→25% • MS/MS conditions • Ionization method: ESI • Capillary temperature: 350° C. • Sheath gas pressure: 80 psi • Spray voltage: 4.5 kV.
The plasma concentration of the racemate was measured by a similar method, and the biological availability was calculated and found to be 20%.

[3] = Solubility test (Japanese Pharmacopoeia Solution 2); format: physicochemical; conditions: for solubility after 30 min: Japanese Pharmacopoeia Solution 2, 37° C., shaken 30 min
Protocol: An adequate amount of a sample was taken, and a test solution (The Japanese Pharmacopoeia Solution 2) was added to each to a concentration of about 1 mg/ml. The sample was dispersed by ultrasonication for 2 min, shaken at 37° C. for 30 min, and the solution was filtered through DISMIC13HP ([…]). The filtrate in the early stage (3 ml) was removed, the subsequent filtrate (500 μl) was precisely measured, and the dilution solution (water/acetonitrile/trifluoroacetic acid mixture=500:500:1, 500 μl) was accurately added to give a sample solution. The sample solution and the standard solution prepared in Experimental Example 5 were subjected to the measurement under the similar HPLC conditions as in Experimental Example 5.

[4] = test system: C5a stimulated neutrophil; assay: Production of reactive oxygen species in C5a-stimulated neutrophil; format: cell-based; conditions: human neutrophil, C5a 3 nmol/L, luminol luminescence, 37° C.; read-out: IC50 value, inhibition of production of reactive oxygen species in C5a stimulated neutrophil
Protocol: A neutrophil fraction was separately taken from human peripheral venous blood using Lympholyte-poly (Cedarlane), and suspended in Hank's Balanced Salt Solution (HBSS, GIBCO BRL) containing 1% fetal bovine serum (FBS) and 1 mmol/L luminol (Wako Pure Chemical Industries, Ltd.). Reactive oxygen species was measured using a luminometer (MicroLumat, Berthold) for 96-well plate. […] Then, 25 μL of C5a (final concentration 3 nmol/L) was added and luminescence produced by the reaction of the luminol and the reactive oxygen species was measured with the lapse of time for 15 min. The rate of inhibition (% inhibition) of the production of reactive oxygen species in C5a stimulated neutrophil by the test compound was calculated by the following formula, wherein the peak value of the production of reactive oxygen species derived by C5a without addition of the test compound is Max, the peak value of the production of reactive oxygen species without addition of the test compound and without C5a stimulation is Min, and the peak value of the production of reactive oxygen species derived by C5a with the addition of the test compound is Test. […]

[5] = Dissolution test (JP Dissolution Test Method 2, paddle method); format: physicochemical; conditions: JP second fluid 900 ml, paddle 50 rpm, 37° C., about 10 mg based on free form
Protocol: The compounds obtained in Examples 22, 24 and 25, free base•Form-I crystal, and the racemate of the compound of Example 3 were subjected to a dissolution test, and the dissolution rate was compared. According to this test method, the amount of dissolution relative to the content of each compound in the test solution is expressed in the dissolution rate (%), which was measured over time.
For the method of adding each compound, the compound (about 10 mg based on free form) was precisely weighed and directly added to a vessel. As the test solution, The Japanese Pharmacopoeia second fluid (900 ml) was used, and the test was performed according to The Japanese Pharmacopoeia Dissolution Test Method 2 (Paddle Method) at 50 rpm. The test temperature was 37° C. After the start of the test, solution for dissolution (10 ml) was taken at suitable times, and a test solution (10 ml) heated to 37° C. was soon carefully added for compensation. The collected solution for dissolution was passed through a filter (DISMIC 13HP PTFE (0.45 μm); Toyo Roshi Kaisha). The filtrate in the early stage (5 ml) was removed, the subsequent filtrate (500 μl) was precisely measured, and the dilution solution (water/acetonitrile/trifluoroacetic acid mixture=500:500:1, 500 μl) was accurately added to give a sample solution.
Separately, about 10 mg of the free base•Form-I crystal was precisely weighed, and a dilution solution (water/acetonitrile/trifluoroacetic acid mixture=500:500:1) was added to 50 ml sharp. This solution (2.5 ml) was precisely measured, and a dilution solution (water/acetonitrile/trifluoroacetic acid mixture=500:500:1) was added to 50 ml sharp. This was used as the standard solution of free base•Form-I crystal (10 μg/ml). The sample solution and the standard solution were measured under the HPLC conditions shown below, the peak areas AT and AS of the free base•Form-I crystal in each solution were measured, and the dissolution rate was determined by the following formula.
The nth dissolution rate (%) of free base•Form-I crystal=Wn/W100%×100 • W1: the first dissolution amount (mg) of free base•Form-I crystal
=(900×AT1)×WS/AS/1000 • Wn: the nth (n>1) dissolution amount (mg) of free base•Form-I crystal
={900×ATn+10×(AT1+AT2 . . . +ATn−1)}×WS/AS/1000 • W100%: cast amount (mg) of drug substance • Ws: collected amount (mg) of free base•Form-I crystal standard product • As: peak area of free base•Form-I crystal in standard solution • AT1: peak area of free base•Form-I crystal in sample solution by the first sampling • ATn: peak area of free base•Form-I crystal in sample solution by the nth sampling. • For racemate, the dissolution rate was calculated based on the total value of S form and R form. […]

For `CCn1cc(CN(C(=O)[C@H]2CCCc3c(O)cccc32)c2ccc(C(C)C)nc2)cn1` [Example 3, (1S)-(−)-N-[(1-ethyl-1H-pyrazol-4-yl)methyl]-5-hydroxy-N-(6-isopropylpyridin-3-yl)-1,2,3,4-tetrahydronaphthalene-1-carboxamide], the “articular swelling score, average” value ([1]; before administration, cynomolgus monkey, 10 per group, control group average 49) was 49, the “articular swelling score, average” value ([1]; day 14 of administration, oral, day 36 to day 50, control group average 82) was 61 and the “effect on aggravation of arthritis” value ([1]; oral administration day 36 to day 50, cynomolgus monkey) was “significantly suppressed aggravation of arthritis”. The IC50 (C5a receptor) was 10 nM, the biological availability ([2]; female SD rats, oral 10 mg/kg vs intravenous 1 mg/kg) was 62% and the AUC ([2]; intravenous administration 1 mg/kg) was 264 ng·h/mL. The AUC ([2]; oral administration 10 mg/kg) was 1640 ng·h/mL, the “solubility after 30 min” value ([3]; listed as free base•Form-I crystal) was 66 µg/mL (≈ 158 µM) and the IC50 [4] was 2.8 nM.
For `CCn1cc(CN(C(=O)[C@H]2CCCc3c(O)cccc32)c2ccc(C(C)C)nc2)cn1` [Example 22, (1S)-(−)-N-[(1-ethyl-1H-pyrazol-4-yl)methyl]-5-hydroxy-N-(6-isopropylpyridin-3-yl)-1,2,3,4-tetrahydronaphthalene-1-carboxamide], the “dissolution rate (comparison)” value [5] was “faster than that of the free base•Form-I crystal”.
In the case of `CCn1cc(CN(C(=O)[C@H]2CCCc3c(O)cccc32)c2ccc(C(C)C)nc2)cn1` [Example 23, (1S)-(−)-N-[(1-ethyl-1H-pyrazol-4-yl)methyl]-5-hydroxy-N-(6-isopropylpyridin-3-yl)-1,2,3,4-tetrahydronaphthalene-1-carboxamide], the “solubility relative to free base•Form-I crystal” value ([3]; JP Solution 2, 37° C., 30 min) is reported as 2.5 fold, the “solubility relative to the racemate” value ([3]; JP Solution 2, 37° C., 30 min) is reported as “about 5 fold” and the “solubility after 30 min” value [3] is reported as 165 µg/mL (≈ 394 µM).
With `CCn1cc(CN(C(=O)[C@H]2CCCc3c(O)cccc32)c2ccc(C(C)C)nc2)cn1.Cl` [Example 24, (1S)-(−)-N-[(1-ethyl-1H-pyrazol-4-yl)methyl]-5-hydroxy-N-(6-isopropylpyridin-3-yl)-1,2,3,4-tetrahydronaphthalene-1-carboxamide monohydrochloride] the “dissolution rate (comparison)” value [5] was “faster than that of the free base•Form-I crystal”.
For `Br.CCn1cc(CN(C(=O)[C@H]2CCCc3c(O)cccc32)c2ccc(C(C)C)nc2)cn1` [Example 25, (1S)-(−)-N-[(1-ethyl-1H-pyrazol-4-yl)methyl]-5-hydroxy-N-(6-isopropylpyridin-3-yl)-1,2,3,4-tetrahydronaphthalene-1-carboxamide monohydrobromide], the “dissolution rate (comparison)” value [5] was “faster than that of the free base•Form-I crystal”.
